Test results: patent US5652105A, “Substrate for detection of mammalian 5-C-DNA methyltransferase” (Health Research, Inc., priority 1995, dated 1997)

What was measured:
Friend leukemia cells = experiment: Growth of Friend leukemia cells treated with phosphorothioate end capped oligomers; type: cell-based, murine; set-up: dose or concentration left out as unconfirmed; conditions: concentrations of oligomers
Experimental: Having established that specific phosphorothioate end capped ODNs retain activity against DNA methyltransferase, their biological effects were examined in intact Friend cells: the biological effects of oligomer A were compared to oligomer B which has no available substrate sites and thus cannot be an inhibitor of DNA methyltransferase, and of oligomer D with oligomer C which has no FC.
A test was conducted to determine if these oligomers affect growth or differentiation of Friend leukemia cells. If growth effects are due to the toxicity of FC released from oligomers, then oligomer A and oligomer B should have equivalent effects and oligomer C should have no effect on growth.
Oligomer C may have a minor effect if it competes with endogenous DNA for DNA methyltransferase binding in a reversible manner. If, however, growth effects are due to a generalized effect of high oligomer concentration, then all oligomers, A, B and C, should affect growth similarly.

murine DNA 5-C-MTase [1] = experiment: Methylation assay: methyl transfer from [methyl-3H]AdoMet to ODNs by DNA methyltransferase from Friend erythroleukemia cell nuclei; type: biochemical
Experimental: The phosphoramidite of 5-fluorodeoxycytidine (5FdC) and unmodified 5-methyl deoxycytosine (5MdC) and 5FC-containing ODNs were synthesized and purified as described in Marasco, C. J. et al., J. Org. […] 5MdC phosphoramidite is commercially available. ss ODNs were heated to 90° C. for 10 min and quickly chilled on ice immediately prior to assay. […] For ds ODNs, an equimolar mixture of complementary ODNs was heated to 90° C. for 10 min and slowly cooled to room temperature.
Preparation of Murine DNA 5-C-MTase. The DNA 5-C-MTase used in these studies was the 100,000×g supernatant of a 0.3M NaCl extract of Friend erythroleukemia cell nuclei.
Methylation Assay. Reaction mixtures (50 μl ) in 0.1M imidazole, pH 7.4/20 mM EDTA/0.5 mM dithiothreitol contained 0.5 μg of each ODN indicated, ≈0.6 units of DNA 5-C-MTase (1 unit transfers 1 pmol to A (AS)·A'Mp (M1) per min; see Table 7), and 2.8 μCi (1 Ci=37 GBq) of [methyl-^3 H]AdoMet (AdoMet=S-adenosylmethionine) (8 μM). […] For accuracy, methylation rates <5 pmol/30 min were measured in quadrupled reaction mixtures (200 μl ). After incubation for 30 min at 37° C., ODNs were processed for quantitation of radiolabel as described (20) with 25 μg of salmon sperm DNA added as carrier prior to perchloric acid precipitation.
All assays were performed in duplicate.

[2] = test system: bacterial SssI methyltransferase; experiment: DNA methylase substrate activity with bacterial SssI enzyme preparation; type: biochemical
Excerpt: (§1) They are labeled Sense (S), Antisense (AS), Methylated Antisense 1 (M1) and Methylated Antisense 2 (M2). […] This property of M2 provides an approach to accurately monitoring levels of DNA methyltransferase activity in clinically obtained tissue samples that might otherwise be contaminated by bacteria, since bacterial DNA methyltransferase activity would be excluded as a component of this measurement.
RESULTS ARE AVERAGE OF 2 EXPTS. BACTERIAL SSS1 ENZYME PREPARATION. ASSAYE

[3] = test system: bacterial DNA methyltransferases; experiment: Methylation by bacterial DNA methyltransferases that require double stranded DNA; type: biochemical
Excerpt: as §1

murine DNA 5-C-MTase [4] = experiment: Methylation assay: methyl transfer from [methyl-3H]AdoMet to ODNs by DNA methyltransferase from Friend erythroleukemia cell nuclei; type: biochemical; conditions: Table 2; enzyme preparation from Friend leukemia cells; 1 μg oligomer; average of 2 expts; background 2691
[5] = target: T1, DNA 5-C-methyltransferase (murine, Friend erythroleukemia cells) (Mus musculus, UniProt P13864 P13864:1-1620); experiment: methylation rate; conditions: protein: extract; tags: 0.3 M NaCl nuclear extract, 100,000 x g supernatant; single approx. 190 kDa species forming covalent complexes; potential stem-loop
T1 sequence (P13864 whole entry, one chain of several): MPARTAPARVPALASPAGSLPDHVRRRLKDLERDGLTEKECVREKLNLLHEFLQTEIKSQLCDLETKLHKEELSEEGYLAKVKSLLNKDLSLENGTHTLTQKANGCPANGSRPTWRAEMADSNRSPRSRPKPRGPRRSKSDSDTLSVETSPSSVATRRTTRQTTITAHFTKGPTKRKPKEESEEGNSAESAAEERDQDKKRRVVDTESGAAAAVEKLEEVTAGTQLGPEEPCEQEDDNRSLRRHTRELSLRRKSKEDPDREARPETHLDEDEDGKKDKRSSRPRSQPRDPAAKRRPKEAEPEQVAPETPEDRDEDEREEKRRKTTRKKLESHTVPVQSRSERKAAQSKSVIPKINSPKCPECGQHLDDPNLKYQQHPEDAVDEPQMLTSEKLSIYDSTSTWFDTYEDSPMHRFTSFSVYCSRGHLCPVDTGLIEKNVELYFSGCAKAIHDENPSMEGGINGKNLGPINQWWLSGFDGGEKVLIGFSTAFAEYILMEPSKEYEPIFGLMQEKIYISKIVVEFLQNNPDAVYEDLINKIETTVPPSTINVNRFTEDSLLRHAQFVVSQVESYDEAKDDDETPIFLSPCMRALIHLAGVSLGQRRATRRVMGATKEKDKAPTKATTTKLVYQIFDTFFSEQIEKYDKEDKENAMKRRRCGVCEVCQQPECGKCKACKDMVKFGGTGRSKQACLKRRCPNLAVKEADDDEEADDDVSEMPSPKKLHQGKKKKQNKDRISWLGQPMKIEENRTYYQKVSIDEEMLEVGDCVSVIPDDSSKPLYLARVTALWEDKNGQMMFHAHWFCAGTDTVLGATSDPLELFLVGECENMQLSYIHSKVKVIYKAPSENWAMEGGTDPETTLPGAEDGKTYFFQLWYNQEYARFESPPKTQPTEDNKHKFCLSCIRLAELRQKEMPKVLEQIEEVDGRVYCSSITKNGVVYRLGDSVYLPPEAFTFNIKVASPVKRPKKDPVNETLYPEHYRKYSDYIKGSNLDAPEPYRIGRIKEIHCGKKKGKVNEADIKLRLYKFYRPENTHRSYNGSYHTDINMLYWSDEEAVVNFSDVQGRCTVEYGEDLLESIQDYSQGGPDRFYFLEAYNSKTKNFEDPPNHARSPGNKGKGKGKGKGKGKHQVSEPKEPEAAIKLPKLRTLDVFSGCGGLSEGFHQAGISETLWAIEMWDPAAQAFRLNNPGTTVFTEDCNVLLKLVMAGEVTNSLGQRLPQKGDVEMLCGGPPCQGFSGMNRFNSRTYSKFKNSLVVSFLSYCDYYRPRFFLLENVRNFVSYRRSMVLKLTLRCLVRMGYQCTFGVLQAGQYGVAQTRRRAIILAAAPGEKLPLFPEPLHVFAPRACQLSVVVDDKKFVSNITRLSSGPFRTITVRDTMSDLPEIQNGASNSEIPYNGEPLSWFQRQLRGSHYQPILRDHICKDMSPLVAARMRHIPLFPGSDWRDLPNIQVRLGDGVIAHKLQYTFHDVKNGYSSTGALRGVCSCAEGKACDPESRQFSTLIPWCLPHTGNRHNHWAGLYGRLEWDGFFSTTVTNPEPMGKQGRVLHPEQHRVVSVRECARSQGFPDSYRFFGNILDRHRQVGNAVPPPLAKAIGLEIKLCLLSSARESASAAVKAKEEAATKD

[6] = target: T1, DNA 5-C-methyltransferase (murine, …); experiment: methylation rate; 170 in Table 6, 130 in Table 10; conditions: protein: extract; tags: 0.3 M NaCl nuclear extract, 100,000 x g supernatant; single approx. 190 kDa species forming covalent complexes
[7] = target: T1, DNA 5-C-methyltransferase (murine, …); experiment: methylation rate; 150 in Table 10; conditions: protein: extract; tags: 0.3 M NaCl nuclear extract, 100,000 x g supernatant; single approx. 190 kDa species forming covalent complexes
Experimental: (§2) Methylation Assay. Reaction mixtures (50 µl) in 0.1M imidazole, pH 7.4/20 mM EDTA/0.5 mM dithiothreitol contained 0.5 µg of each ODN indicated, ≈0.6 units of DNA 5-C-MTase (1 unit transfers 1 pmol to A (AS)·A'M_p (M1) per min; see Table 7), and 2.8 µCi (1 Ci=37 GBq) of [methyl-^3H]AdoMet (AdoMet=S-adenosylmethionine) (8 µM). Substrate C sites are in excess in the reaction, and methyl transfer is linear for >45 min. For accuracy, methylation rates <5 pmol/30 min were measured in quadrupled reaction mixtures (200 µl). After incubation for 30 min at 37° C., ODNs were processed for quantitation of radiolabel as described (20) with 25 µg of salmon sperm DNA added as carrier prior to perchloric acid precipitation.

[8] = target: T1, DNA 5-C-methyltransferase (murine, …); experiment: methylation rate; 128 in Table 10; conditions: protein: extract; tags: 0.3 M NaCl nuclear extract, 100,000 x g supernatant; single approx. 190 kDa species forming covalent complexes
Experimental: as §2

[9] = target: T1, DNA 5-C-methyltransferase (murine, …); experiment: inhibition; methylation rate; 3 in Table 6; potent inhibitor; conditions: protein: extract; tags: 0.3 M NaCl nuclear extract, 100,000 x g supernatant; single approx. 190 kDa species forming covalent complexes
[10] = target: T2, Hha I DNA methyltransferase (UniProt P05102 P05102:1-327); experiment: ss ODNs not substrates at 37 C
T2 sequence: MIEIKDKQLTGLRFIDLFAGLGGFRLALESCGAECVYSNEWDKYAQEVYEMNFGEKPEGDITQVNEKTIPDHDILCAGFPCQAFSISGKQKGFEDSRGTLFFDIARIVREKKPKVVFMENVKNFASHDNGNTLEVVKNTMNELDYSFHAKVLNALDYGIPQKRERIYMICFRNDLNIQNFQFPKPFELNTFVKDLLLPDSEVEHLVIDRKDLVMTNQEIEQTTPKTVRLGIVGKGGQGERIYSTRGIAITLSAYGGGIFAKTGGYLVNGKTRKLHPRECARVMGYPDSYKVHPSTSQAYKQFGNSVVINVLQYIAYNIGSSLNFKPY

ATTGCGNATTCCGGATCNGCGATC (phosphorothioate end caps, 5-MeC 7, 5-FC 18, further chemistry not given here) [Oligomer A, phosphorothioate end capped ASM7F18]
inhibition of growth of Friend leukemia cells (in words) (Friend leukemia cells): more potent that B
inhibition of methylation by incorporation of FC in position 18 (murine DNA 5-C-MTase [1]; oligomer A compared with capped ASM7, cell free enzyme assay): 97%

ATTGCGNATTCCGGATCCGCGATC (phosphorothioate end caps, 5-methylcytosine 7, further chemistry not given here) [Oligomer C, phosphorothioate end capped ASM7]
inhibition of growth of Friend leukemia cells (in words) (Friend leukemia cells): no appreciable effect

5' ATTGCGNATTNCGGATNCGCGATC 3' (5-methylcytosine at 7, 11, 17, further chemistry not given here) [M2, AS with 5-methylcytosine (N) at 7, 11, 17 (non-CpG sites)]
substrate activity for bacterial SssI methyltransferase (in words) [2]: only moderate activity as a substrate
DNA METHYLASE SUBSTRATE ACTIVITY, ACTIVITY (CPM) ([2]; Table 3, bacterial SssI enzyme preparation, 0.25 μg oligomer, average of 2 expts, background 1351): 51047 CPM
methylation by most bacterial DNA methyltransferases (in words) [3]: not methylated
DNA METHYLASE SUBSTRATE ACTIVITY, ACTIVITY (CPM) (murine DNA 5-C-MTase [4]): 882284 CPM
substrate activity for mammalian DNA methyltransferase (in words) (murine DNA 5-C-MTase [1]): exceptional substrate activity
DNA METHYLASE (FL) SUBSTRATE ACTIVITY, ACTIVITY (CPM) (murine DNA 5-C-MTase [1]; Table 4, single and double stranded constructs, average of 2 expts, background 1813): 157027 CPM
RATE (rate of methylation relative to A) (murine DNA 5-C-MTase [1]; Table 9, ss ODNs with 5MeC substituted for C at the sites given): 130
RATE (rate of methylation relative to A) (murine DNA 5-C-MTase [1]; Table 10, ss ODNs with 5 mC and 5 FC substitutions): 128

ATGACGCACCTCGTTGACGCGCTA (ssDNA, 5mC at 7) [structure 6 ODN]
binding signal [5]: > 300 relative to A

ATTGCGCATTCCGGATCCGCGATC (ssDNA, 5mC at 7 [5mC at 7]) [ASM7]
binding signal [6]: 140 relative to A

ATTGCGCATTCCGGATCCGCGATC (ssDNA, 5mC at 5) [ASM5]
binding signal [7]: 175 relative to A

ATTGCGCATTCCGGATCCGCGATC (ssDNA, 5mC at 7,11,17 [5mC at 7,11,17]) [M2 (AMx)]
binding signal [8]: 130 relative to A

ATTGCGCATTCCGGATCCGCGATC (ssDNA, 5mC at 7; 5-fluoro-C at 18 [5mC at 7; 5-fluoro-C at 18]) [ASM7 F18]
binding signal [9]: 3.2 relative to A

GATCGCGGATCCGGAATGCGCAAT (ssDNA) [S (A')]
binding result [10]: no binding
